# Experimental data published in PubChem BioAssay (NCI).
#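 Five concentrations, 48 hours, 96-well plates. TGI: total growth inhibition.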
# System: OVCAR-8 ovarian
# Assay: NCI anticancer screen, dose series, 48 h
row,SMILES,TGI [µM]
1,CC1=CCC([C@@](C)(O)CCCC(C)(C)N=C=S)CC1 (some centres not stated),32.7
2,C=C1C(=O)CC2C1CC(=O)/C(C)=C/CCC(C)(O)C2O (configuration not stated),11.6
3,C[C@H](CCC(=O)O)[C@H]1CC[C@H]2[C@@H]3C(=O)C[C@@H]4C[C@H](O)CC[C@]4(C)[C@H]3C[C@H](O)[C@]12C,> 100
4,O=C(O)c1ccccc1CC(Cc1ccc2c(c1)CCC2)C(=O)O (configuration not stated),> 100
5,Cn1c(SCc2ccc(F)cc2)nnc1C12CC3CC(CC(C3)C1)C2,> 100
6,COC(=O)/C=C\C(C#N)(C#N)N=Cc1ccc(C)cc1,6.12
7,CC(c1ccccc1)N1CCN(C(C)c2ccccc2)CC1 (configuration not stated),> 100
8,COc1ccc(N2C(=O)CC(=O)N(NC(=O)C(C)Oc3ccccc3C)C2=S)cc1 (configuration not stated),> 100
9,O=C1OC(C2Cc3ccc4ccccc4c3C2=O)c2ccccc21 (configuration not stated),> 100
10,C/C(=N\N=C1/C(=O)OC(c2ccccc2)=C1C(=O)c1ccccc1)c1ccc([N+](=O)[O-])cc1,> 100
11,O=S(=O)(O)C(CO)c1ccccc1 (configuration not stated) (tested in a mixture with another compound),> 100
12,O=C1c2ccccc2C(=O)N1n1c(Cc2ccc([N+](=O)[O-])cc2)n[nH]c1=O,> 100
13,Cc1nc(C)c(N2CCN([N+](=O)[O-])CC2)c(=O)[nH]1,> 100
14,Cc1nn(-c2ccccc2)c2c1C(c1cc3ccccc3nc1Cl)NC(=O)N2 (configuration not stated),47.4
15,COc1ccc(C2OC(c3ccncc3)=NN2C)cc1F (configuration not stated),> 100
16,Cc1cc(/N=C/c2ccc(N(C)C)cc2)n(-c2ccccc2)n1,> 100
17,O=C(/C=C/c1ccccc1)Oc1ccc(C(=O)/C=C/c2ccccc2)cc1,16

row,SMILES,TGI [µM]
1,COC(=O)C(Cc1ccc2c(c1)CCC2)Cc1ccc2c(c1)CCC2,> 100
2,C/C(C[n+]1ccccc1)=N\N=C(N)N,> 100
3,NCCCN1c2ccccc2Sc2ccc(Cl)cc21,> 10
4,CCOC(=O)c1cccc(N=Nc2nc[nH]c2/C=C/C(=O)OC)c1,> 100
5,O=C(O)CN1CCN2CCCCCN(CC1)CCN(CC(=O)O)CC2,> 100
6,Clc1ccc(-c2nnc3sc4nc5ccccc5c-4nn23)c(Cl)c1,> 100
7,C=C(C(=O)OCC)C(=O)OCC,> 100
8,N#CC(C#N)=C1SC(=Nc2ccccc2)C(=Nc2ccccc2)N1c1ccccc1,65.9
9,CSC1=N/C(=C\c2ccc(C)cc2)C(=O)N1CN1CCCCC1,> 100
10,O=C1c2cc(-c3ccccc3)cnc2S(=O)(=O)N1c1ccc(Br)cc1,> 100
11,O=C(NCP(=O)(Oc1ccccc1)Oc1ccccc1)OCc1ccccc1,> 100
12,Cc1c(O)nc(-n2[nH]c3c(c2=O)CCCC3)[nH]c1=O,> 100
13,C=CCc1cc(-c2nc(=S)[nH][nH]2)ccc1N=NNc1ccc(C(=O)O)cc1,> 100
14,O=C(O)CN1CCNCCN(CC(=O)O)CCN(CC(=O)O)CCNCC1,> 100
15,COC(C)(C)C1(O)CC[C@@H](C)CC1=O (some centres not stated),> 100
16,Nc1ccc(N=Nc2c(S(=O)(=O)O)cc3ccccc3c2S(=O)(=O)O)cc1,> 100

# System: MDA-MB-435
# Assay: NCI anticancer screen, dose series, 48 h
row,SMILES,TGI [µM]
1,CC1=CCC([C@@](C)(O)CCCC(C)(C)N=C=S)CC1 (some centres not stated),31
2,C=C1C(=O)CC2C1CC(=O)/C(C)=C/CCC(C)(O)C2O (configuration not stated),20.4
3,C[C@H](CCC(=O)O)[C@H]1CC[C@H]2[C@@H]3C(=O)C[C@@H]4C[C@H](O)CC[C@]4(C)[C@H]3C[C@H](O)[C@]12C,> 100
4,O=C(O)c1ccccc1CC(Cc1ccc2c(c1)CCC2)C(=O)O (configuration not stated),> 100
5,Cn1c(SCc2ccc(F)cc2)nnc1C12CC3CC(CC(C3)C1)C2,61.7
6,COC(=O)/C=C\C(C#N)(C#N)N=Cc1ccc(C)cc1,5.01
7,CC(c1ccccc1)N1CCN(C(C)c2ccccc2)CC1 (configuration not stated),> 100
8,COc1ccc(N2C(=O)CC(=O)N(NC(=O)C(C)Oc3ccccc3C)C2=S)cc1 (configuration not stated),> 100
9,O=C1OC(C2Cc3ccc4ccccc4c3C2=O)c2ccccc21 (configuration not stated),> 100
10,C/C(=N\N=C1/C(=O)OC(c2ccccc2)=C1C(=O)c1ccccc1)c1ccc([N+](=O)[O-])cc1,> 100
11,O=S(=O)(O)C(CO)c1ccccc1 (configuration not stated) (tested in a mixture with another compound),> 100
12,O=C1c2ccccc2C(=O)N1n1c(Cc2ccc([N+](=O)[O-])cc2)n[nH]c1=O,> 100
13,Cc1nc(C)c(N2CCN([N+](=O)[O-])CC2)c(=O)[nH]1,> 100
14,Cc1nn(-c2ccccc2)c2c1C(c1cc3ccccc3nc1Cl)NC(=O)N2 (configuration not stated),54.7
15,COc1ccc(C2OC(c3ccncc3)=NN2C)cc1F (configuration not stated),> 100
16,Cc1cc(/N=C/c2ccc(N(C)C)cc2)n(-c2ccccc2)n1,> 100
17,O=C(/C=C/c1ccccc1)Oc1ccc(C(=O)/C=C/c2ccccc2)cc1,18.8

row,SMILES,TGI [µM]
1,COC(=O)C(Cc1ccc2c(c1)CCC2)Cc1ccc2c(c1)CCC2,> 100
2,C/C(C[n+]1ccccc1)=N\N=C(N)N,> 100
3,NCCCN1c2ccccc2Sc2ccc(Cl)cc21,4.01
4,CCOC(=O)c1cccc(N=Nc2nc[nH]c2/C=C/C(=O)OC)c1,> 100
5,O=C(O)CN1CCN2CCCCCN(CC1)CCN(CC(=O)O)CC2,> 100
6,Clc1ccc(-c2nnc3sc4nc5ccccc5c-4nn23)c(Cl)c1,> 100
7,C=C(C(=O)OCC)C(=O)OCC,> 100
8,N#CC(C#N)=C1SC(=Nc2ccccc2)C(=Nc2ccccc2)N1c1ccccc1,35.1
9,CSC1=N/C(=C\c2ccc(C)cc2)C(=O)N1CN1CCCCC1,> 100
10,O=C1c2cc(-c3ccccc3)cnc2S(=O)(=O)N1c1ccc(Br)cc1,> 100
11,O=C(NCP(=O)(Oc1ccccc1)Oc1ccccc1)OCc1ccccc1,> 100
12,Cc1c(O)nc(-n2[nH]c3c(c2=O)CCCC3)[nH]c1=O,> 100
13,C=CCc1cc(-c2nc(=S)[nH][nH]2)ccc1N=NNc1ccc(C(=O)O)cc1,> 100
14,O=C(O)CN1CCNCCN(CC(=O)O)CCN(CC(=O)O)CCNCC1,> 100
15,COC(C)(C)C1(O)CC[C@@H](C)CC1=O (some centres not stated),> 100
16,Nc1ccc(N=Nc2c(S(=O)(=O)O)cc3ccccc3c2S(=O)(=O)O)cc1,> 100

# System: OVCAR-4 ovarian
# Assay: NCI anticancer screen, dose series, 48 h
row,SMILES,TGI [µM]
1,CC1=CCC([C@@](C)(O)CCCC(C)(C)N=C=S)CC1 (some centres not stated),30.9
2,C=C1C(=O)CC2C1CC(=O)/C(C)=C/CCC(C)(O)C2O (configuration not stated),29.1
3,C[C@H](CCC(=O)O)[C@H]1CC[C@H]2[C@@H]3C(=O)C[C@@H]4C[C@H](O)CC[C@]4(C)[C@H]3C[C@H](O)[C@]12C,> 100
4,O=C(O)c1ccccc1CC(Cc1ccc2c(c1)CCC2)C(=O)O (configuration not stated),> 100
5,Cn1c(SCc2ccc(F)cc2)nnc1C12CC3CC(CC(C3)C1)C2,> 100
6,COC(=O)/C=C\C(C#N)(C#N)N=Cc1ccc(C)cc1,12.9
7,CC(c1ccccc1)N1CCN(C(C)c2ccccc2)CC1 (configuration not stated),> 100
8,COc1ccc(N2C(=O)CC(=O)N(NC(=O)C(C)Oc3ccccc3C)C2=S)cc1 (configuration not stated),> 100
9,O=C1OC(C2Cc3ccc4ccccc4c3C2=O)c2ccccc21 (configuration not stated),65.3
10,C/C(=N\N=C1/C(=O)OC(c2ccccc2)=C1C(=O)c1ccccc1)c1ccc([N+](=O)[O-])cc1,> 100
11,O=S(=O)(O)C(CO)c1ccccc1 (configuration not stated) (tested in a mixture with another compound),> 100
